# Reference: US20250134907A1, “FUSED DIAZEPINES AS AGONISTS OF THE INSULIN-LIKE 3 (INSL3) PEPTIDE RECEPTOR RXFP2 AND METHODS OF USE THEREOF” (The United States of America,as represented by the …, priority 2022, published 2025)
# Tests used:
# [1] = target: T1, WT RXFP2 (Homo sapiens, UniProt Q8WXD0); assay: HTRF cAMP assay in HEK293T cells transiently transfected with WT RXFP2; assay type: cell-based
# T1 construct: using full-length human RXFP1 and RXFP2 receptor constructs; FLAG; expressed in transfected cells; host or cells: HEK293T (transient, Lipofectamine2000)
# Text: (§1) To further investigate the involvement of the RXFP2 extracellular and transmembrane domains in agonist activation of the receptor, two complementary chimeras were created using the RXFP1 receptor, which is not activated by the agonists of formula (I), to transiently transfect HEK293T cells and measured changes in cAMP induction using the HTRF assay.
# (§2) Chimeric receptors were generated by IN-FUSION™ (Takara Bio USA, Inc., San Jose, CA) mutagenesis using full-length human RXFP1 and RXFP2 receptor constructs. Polymerase chain reaction (PCR) was performed using PfuTurbo high-fidelity DNA polymerase (Agilent Technologies, Santa Clara, CA) and overlapping primers with at least 15 bp sequence homology within the fusion site. PCR products were digested with Dpnl restricton enzyme at 37° C. overnight, run on a 0.8% agarose gel and purified using the GENEJET™ Gel extraction kit (Thermo Scientific, Waltham, MA). The purified DNA fragments were then ligated into the BamHI and XhoI pre-digested pcDNA3.1™/Zeo(+) AmpR mammalian expression vector using the In-Fusion HD enzyme premix (Clontech, Mountain View, CA) at 50° C. for 15 minutes, and the resulting product was used to transform Stellar competent cells (Takara Bio USA, Inc., San Jose, CA). The clones were fully sequenced to confirm the correct fusion of both receptor fragments. Chimera RXFP2-1 contained the extracellular domain of RXFP2 and the transmembrane domain of RXFP1. Accordingly, chimera RXFP1-2 contained the extracellular domain of RXFP1 and the transmembrane domain of RXFP2.
# (§3) HEK293T cells were seeded in 6-well flat-bottom clear plates at 0.5 million cells/well in 2 mL/well of growth medium (DMEM, 10% FBS, 1× Pen/Strep) and allowed to attach overnight at 37° C. and 5% CO2. The next morning, cells were transfected with 2 μg of plasmid (chimeric receptors, WT RXFP2, or WT RXFP1) and 6 μl of Lipofectamine2000 (Invitrogen, Waltham, MA) in a total volume of 200 μl/well OPTI-MEM™ I (Thermo Fisher, Waltham, MA) reduced serum medium and allowed to incubate an additional 24 hours. The next day, transfected cells were seeded in 96-well flat-bottom opaque plates at 30,000 cells/well in 60 μL/well of serum-free DMEM medium and allowed to attach overnight at 37° C. at 5% CO2. The next morning, cells were treated with 1 μL/well of compound (25 μM-0.25 nM), 2 μM forskolin, or DMSO vehicle. Cells were also treated with 4 μL of positive control INSL3 (100-0.01 nM), Relaxin2 (100-10 nM), or vehicle (serum-free DMEM+IBMX). Plates were incubated for 1 hour at 37° C. and 5% CO2, after which kit cAMP-d2 and anti-cAMP antibody were added as previously described. Cells were incubated for 1 hour at room temperature, and then the signal was read on a CLARIOstar plate reader (BMG Labtech, Germany).
# [2] = target: T2, chimera RXFP1-2 (extracellular domain of RXFP1, transmembrane domain of RXFP2) (Homo sapiens, UniProt Q8WXD0); assay: HTRF cAMP assay in HEK293T cells transiently transfected with chimera RXFP1-2; assay type: cell-based; conditions: RXFP1-2 chimera
# T2 construct: other: RXFP1-2 chimera; Emax; normalized to 2 μM forskolin cAMP response as 100% activity; fused on or other part: FLAG tag; The RXFP1 extracellular domain is the N-terminal part of the chimera and the RXFP2 transmembrane domain is the C-terminal part; Q9HBX9 (Relaxin receptor 1)
# Text: as §1, §2, §3
# [3] = system: trabecular bone of L3 vertebrae; assay: Bone anabolic study, microCT of L3 vertebrae; assay type: in vivo, C57BL/6J female mice; conditions: 10 mg/kg oral gavage every other day, 8 weeks, vs vehicle
# [4] = target: T3, RXFP2 (Homo sapiens, UniProt Q8WXD0); assay: HTRF cAMP assay in HEK-RXFP2 cells with INSL3 B dimer antagonist co-treatment; assay type: cell-based; conditions: antagonist 10 μM-[…], IBMX 200 μM
# T3 construct: expressed in transfected cells
# Experimental: Previous publications have characterized the INSL3/RXFP2 binding model, showing that the B-chain of INSL3 binds with high affinity to the extracellular leucine-rich repeat (LRR) domain of RXFP2. To determine if the RXFP2 agonists interact with the receptor in a similar manner, an INSL3 antagonist (INSL3 B dimer) was used to co-treat HEK-RXFP2 cells with RXFP2 agonists or INSL3 and measure induction of cAMP using the HTRF assay. […] The HTRF cAMP assay was carried out in the presence of 200 μM IBMX to amplify the cAMP signal. For this assay, cells were seeded in 96-well flat-bottom opaque plates at 7,500 cells/well in 60 μL/well of serum-free DMEM medium and allowed to attach overnight at 37° C. and 5% CO2. The next morning, cells were treated with 2 μL of INSL3 B dimer antagonist (10 μM-0.21 nM) and 2 μL of 30 nM INSL3 or 4 μL of vehicle (serum-free DMEM+IBMX). Cells were also treated with 1 μL/well of 0.28 μM compound, 2 μM forskolin, or DMSO vehicle. Cells were incubated for 1 hour at 37° C., 5% CO2, after which kit cAMP-d2 and anti-cAMP antibody were added as previously described. Plates were incubated for 1 hour at room temperature, and then the signal was read on a CLARIOstar plate reader (BMG Labtech, Germany).
# [5] = HEK-293T, normalized to 2 μM forskolin cAMP response as 100% activity
# T1 sequence (Q8WXD0 whole entry): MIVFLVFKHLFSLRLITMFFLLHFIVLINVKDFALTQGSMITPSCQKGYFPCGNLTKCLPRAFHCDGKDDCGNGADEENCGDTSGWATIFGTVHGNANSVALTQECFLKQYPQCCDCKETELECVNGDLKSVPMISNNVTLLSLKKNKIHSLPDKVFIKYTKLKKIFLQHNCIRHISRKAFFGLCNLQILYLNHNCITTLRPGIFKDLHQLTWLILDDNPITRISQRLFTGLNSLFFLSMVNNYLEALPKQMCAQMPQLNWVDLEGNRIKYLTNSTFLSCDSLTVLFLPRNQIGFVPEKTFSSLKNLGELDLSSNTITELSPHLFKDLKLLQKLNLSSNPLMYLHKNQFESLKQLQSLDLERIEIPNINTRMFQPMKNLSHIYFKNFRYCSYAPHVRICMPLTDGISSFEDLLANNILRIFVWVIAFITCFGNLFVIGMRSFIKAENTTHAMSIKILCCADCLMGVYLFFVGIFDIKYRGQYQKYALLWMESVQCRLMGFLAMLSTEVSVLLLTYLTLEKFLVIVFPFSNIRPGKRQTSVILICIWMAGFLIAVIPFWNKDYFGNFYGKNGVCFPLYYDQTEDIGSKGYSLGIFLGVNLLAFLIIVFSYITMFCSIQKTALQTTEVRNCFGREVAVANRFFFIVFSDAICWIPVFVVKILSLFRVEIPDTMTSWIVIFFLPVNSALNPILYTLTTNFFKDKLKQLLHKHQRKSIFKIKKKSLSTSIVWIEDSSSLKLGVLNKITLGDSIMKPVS
# T2 sequence (Q8WXD0 417-754 limits assumed, change not shown): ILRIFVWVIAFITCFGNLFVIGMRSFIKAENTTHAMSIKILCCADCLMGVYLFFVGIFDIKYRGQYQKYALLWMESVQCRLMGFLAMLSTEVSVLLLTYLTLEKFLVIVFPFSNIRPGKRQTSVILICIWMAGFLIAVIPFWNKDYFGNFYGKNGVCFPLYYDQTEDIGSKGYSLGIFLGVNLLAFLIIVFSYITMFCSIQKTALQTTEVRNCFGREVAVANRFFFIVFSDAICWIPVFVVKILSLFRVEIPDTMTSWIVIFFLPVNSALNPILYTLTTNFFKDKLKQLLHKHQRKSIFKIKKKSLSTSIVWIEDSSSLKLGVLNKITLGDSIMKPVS
# T3 sequence (Q8WXD0 whole entry): as the sequence (Q8WXD0 whole entry) above
structure (smiles),measurement,setting,value
"O=C1Nc2ccc(-c3cc(C(F)(F)F)cc(C(F)(F)F)c3)cc2C(=O)N2CCN(C(=O)COc3ccc(OC(F)(F)F)cc3I)C[C@@H]12 [Example 187, (S)-8-(3,5-bis(trifluoromethyl)phenyl)-2-(2-(2-iodo-4-(trifluoromethoxy)phenoxy)acetyl)-1,3,4,12a-tetrahydrobenzo[e]pyrazino[1,2-a][1,4]diazepine-6,12 (2H, 11H)-dione]",Emax,[1]; [5],86.3 ± 3.38%
same,EC50,[1]; read-out: EC50 (μM or nM),0.012 ± 0.008 µM
same,Emax,[2]; [5],96.47 ± 0.43%
same,EC50,[2]; read-out: EC50 (μM or nM),0.016 ± 0.002 µM
same,bone volume per tissue volume (BV/TV),[3],small non-significant improvement
same,trabecular number (Tb.N),[3],significant increase
same,trabecular separation (Tb.Sp),[3],small non-significant improvement
same,trabecular thickness (Tb.Th),[3],significant increase
same,effect of INSL3 B dimer antagonist on cAMP response induced by the compound,[4],no effect
